Results taken from PubChem BioAssay (NCI).
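Briefly, cells in 96-well plates were exposed to five compound concentrations for 48 h, and endpoints were estimated by linear interpolation. GI50 is the concentration that inhibits growth by half. TGI: concentration producing complete growth inhibition.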

How the values were obtained:
Assay in all cases: NCI anticancer screen, dose series, 48 h
[1] = system: MALME-3M melanoma
[2] = system: OVCAR-5 ovarian
[3] = system: HCC-2998 colon
[4] = system: NCI-H226 lung
[5] = system: NCI-H522 lung
[6] = system: NCI-H23 lung
[7] = system: SK-MEL-2 melanoma
[8] = system: HL-60(TB) leukemia
[9] = system: HCT-116 colon
[10] = system: HT29 colon

SMILES	GI50 [1]	TGI [1]	GI50 [2]	TGI [2]	GI50 [3]	TGI [3]	GI50 [4]	TGI [4]	GI50 [5]	TGI [5]	GI50 [6]	TGI [6]	GI50 [7]	TGI [7]	GI50 [8]	TGI [8]	GI50 [9]	TGI [9]	GI50 [10]	TGI [10]
Cc1ccc(-n2nnc3c(sc4ccccc43)c2=O)cc1	8.4 µM	> 100 µM	> 100 µM	> 100 µM	68.7 µM	> 100 µM	9.55 µM	> 100 µM	63.5 µM	> 100 µM	42.8 µM	> 100 µM	99 µM	> 100 µM	> 100 µM	> 100 µM	3.1 µM	> 100 µM	3.59 µM	> 100 µM
COc1ccc(C2=NNC(c3cc(Cc4ccc(O)c(C5CC(c6ccc(OC)cc6)=NN5)c4)ccc3O)C2)cc1 (stereo not given)	48.9 µM	> 100 µM	17.1 µM	88 µM	46 µM	> 100 µM	6.08 µM	> 100 µM	3.64 µM	23.4 µM	5.3 µM	> 100 µM	5.9 µM	29 µM	23.4 µM	> 100 µM	4.11 µM	15.9 µM	32.2 µM	> 100 µM
COc1ccc(/C=C/c2ccnc3ccccc23)cc1		30.6 µM		36.5 µM		36.6 µM		38.2 µM		36.6 µM		30.6 µM		38.4 µM		20.1 µM		29.1 µM		23.1 µM
O=[N+]([O-])c1ccc(Oc2cccc(C(F)(F)F)c2)c([N+](=O)[O-])c1	5.66 µM	23.9 µM	4.08 µM	17.6 µM	2.3 µM	6.51 µM	2.11 µM	5.92 µM	2.11 µM	5.7 µM	2.15 µM	12 µM	3.81 µM	9.82 µM	1.7 µM	4.65 µM	1.24 µM	12.7 µM	4.68 µM	16.2 µM
